Reference: patent publication US11377444B2, “Pyridopyrimidine compounds acting as mTORC 1/2 dual inhibitors” (MEDSHINE DISCOVERY INC., priority 2017, dated 2022)
Like-named read-outs stand apart in the source and are kept apart here. Values belong to the molecule of their own block, whether it stands above or below them.

Columns and labels:
[1] = molecular target: T1, mTOR kinase (mTORC1 and mTORC2 kinase complex) (Homo sapiens, UniProt P42345); assay: In vitro evaluation of mTOR kinase inhibitory activity (DiscoverX ligand-bead competition binding, qPCR readout)
T1 construct: purchased DiscoverX; host or cells: HEK-293
Protocol: Experimental Embodiment 1: In Vitro Evaluation of mTOR Kinase Inhibitory Activity This experiment was performed by DiscoverX. All materials and methods were obtained from DiscoverX.
Kinase activity analysis.
1. Labeled mTOR kinase was stably expressed in HEK-293 cells.
2. Streptavidin magnetic beads were treated with biotinylated small molecule ligands at room temperature for 30 minutes to produce affinity resin for kinase analysis;
3. Ligand beads were blocked with excess biotin and washed with buffer (1% bovine serum albumin, […]) to remove unbound ligand and non-specifically bound ligand;
4. The assembly of kinase and ligand and affinity beads, and the binding reaction between the compound and the three were performed in buffer (20% blocking buffer, 0.17x phosphate buffer, 0.05% Tween […]);
5. The test compounds were dissolved in dimethyl sulfoxide;
6. All test compounds were dissolved in DMSO, and then directly diluted […]
7. The solution was placed in a 384-well polypropylene plate, wherein the volume of each well was 0.02 mL;
8. The plate was shaked for an hour at room temperature;
9. The plate was washed with buffer (1× PBS, 0.05% Tween 20);
10. The affinity beads were resuspended in buffer (1× PBS, 0.05% Tween […] non-biotin affinity ligand) and incubated at room temperature for 30 minutes;
11. The kinase concentration in the eluate was deteced by qPCR.

OE21 cell = assay: Cell proliferation inhibitory activity (Cell-Titer-Glo), OE21; assay type: cell-based; conditions: OE21, 72 h; 3 days incubation
From the text: (§1) Experimental Embodiment 2: Evaluation of Cell Proliferation Inhibitory Activity
(§2) Experiment objective: To detect cell proliferation inhibitory activity of the tested compounds.
(§3) Experimental principle: The luciferase in the Cell-Titer-Glo reagent produces oxyluciferin using luciferin, oxygen and ATP as reaction substrates, and releases energy in the form of light. Since the reaction of luciferase requires ATP, the total amount of light generated by the reaction is proportional to the total amount of ATP that reflects cell viability.
(§4) Cell lines: MCF-7 cell line […], HT-29 cell line (ATCC-HTB-38), OE21 (ECACC-96062201), NCI-N87 cell line (ATCC-CRL-5822)
(§5) Cell culture medium: (RPMI 1640 culture medium (Invitrogen #1868546; 10% serum Invitrogen #1804958; L-glutamine 1×, Invitrogen #1830863; dual antibiotic Hyclone #J170012))
(§6) Cell Titer-Glo® Luminescent Cell Viability Assay Kit (Promega #G7573)
(§7) The cells were inoculated in a 384- or 96-well plate with a density of 1000 cells per well and 25 μL per well according to the instructions of the cell inoculating plate. The edge wells were not inoculated with cells, and was supplemented with […].
(§8) (i) The mother solution of the compound was 10 mM, and diluted with DMSO to an initial concentration of 4 mM. The compound was added to the compound mother solution, 9 μL per well.
(§9) (ii) The compound was diluted with ECHO liquid-handling workstation. Each well of the cell plate was added with 125 nL compound. Each well of the cell wells in 2nd column and 23rd column was added with 125 nL DMSO, and each of the PBS wells in 1st column and 24th column was added with 125 nL DMSO.
(§10) (iii) Each well of the cell plate was supplemented with 25 μL culture medium, the final volume in each well of the cell plate was 50 μL, […] 3 times dilution, 10 concentrations, each concentration was duplicated in left and right wells, the final DMSO concentration was 0.25%.
(§11) 2.3. After addition of the compound, centrifugation was performed at 1000 rpm for 1 min, and the cell plate was placed in a 37° C., 5% CO2 incubator for 3 days.
(§12) The cell plate was taken out from the incubator and equilibrated at room temperature for 30 minutes. 25 μL Cell-Titer-Glo reagent was added to each well, shaken for one minute to mix thoroughly, centrifuged at 1000 rpm for 1 minute. After 10 minutes, the plate was read on PerkinElmer Envision with a […] reading time was set at 0.2 second.

HT-29 cell = assay: Cell proliferation inhibitory activity (Cell-Titer-Glo), HT-29; assay type: cell-based; conditions: Homo sapiens, HT-29, 72 h, 3 days incubation
From the text: as §1, §2, §3, §4, §5, §6, §7, §8, §9, §10, §11, §12

[2] = Pharmacokinetic evaluation in plasma after IV and PO administration; assay type: in vivo; conditions: female Balb/c mice; for MRT inf: read-out: MRT0-inf; for MRT last: read-out: MRT0-last
Protocol: Experimental Embodiment 3: Pharmacokinetic Evaluation
The test compound was mixed with […] (Cremophor EL), vortexed and sonicated to prepare a 1 mg/mL near-clear solution, which was filtered with a microporous filter membrane for future use. Female Balb/c mice of 18 to 20 grams were selected and the solution of the test compound was administered intravenously at a dose of 1 or 2 mg/kg. The test compound was mixed with an aqueous solution of 1% Tween 80, 9% polyethylene glycol 400, and 90% water, vortexed and sonicated to prepare 1 mg/mL near-clear solution, which was filtered with a microporous filter membrane for future use.
Female Balb/c mice of 18 to 20 grams were selected, and the solution of the test compound was orally administered at a dose of 2 or 10 mg/kg. The whole blood was collected at a certain time, and prepared into plasma. The drug concentration was analyzed by LC-MS/MS, and the pharmacokinetic parameters were calculated using Phoenix WinNonlin software (Pharsight Corporation, USA).

MCF-7 cell = assay: Cell proliferation inhibitory activity (Cell-Titer-Glo), MCF-7; assay type: cell-based; conditions: Homo sapiens, MCF7, 72 h; 3 days incubation
From the text: as §1, §2, §3, §4, §5, §6, §7, §8, §9, §10, §11, §12

N87 cell = assay: Cell proliferation inhibitory activity (Cell-Titer-Glo), N87; assay type: cell-based; conditions: 72 h; 3 days incubation
From the text: as §1, §2, §3, §4, §5, §6, §7, §8, §9, §10, §11, §12

Kd [1]: 0.00085 µM
IC50 (HT-29 cell): 0.485 µM
AUCExtra ([2]; IV 2 mg/kg): 0.124%
AUMCExtra ([2]; IV 2 mg/kg): 1.27%
Tlast ([2]; IV 2 mg/kg): 12 h
AUCExtra ([2]; PO 10 mg/kg): 0.174%
AUMCExtra ([2]; PO 10 mg/kg): 1.83%
Tlast ([2]; PO 10 mg/kg): 24.0 h
AUC(0-inf) ([2]; mouse, IV 2 mg/kg): 7.42 µM·h
AUC(0-t) ([2]; mouse, IV 2 mg/kg): 7.41 µM·h
C0 ([2]; mouse, IV 2 mg/kg): 7.2 µM
clearance ([2]; mouse, IV 2 mg/kg): 0.567 L/h/kg
half-life ([2]; mouse, IV 2 mg/kg): 1.65 h
MRT inf ([2]; mouse, IV 2 mg/kg): 1.38 h
MRT last ([2]; mouse, IV 2 mg/kg): 1.2 h
Vd ([2]; mouse, IV 2 mg/kg, read-out: Vdss): 0.793 L/kg
AUC(0-inf) ([2]; mouse, PO 10 mg/kg): 35 µM·h
AUC(0-t) ([2]; mouse, PO 10 mg/kg): 35 µM·h
Cmax ([2]; mouse, PO 10 mg/kg): 15.1 µM
Tmax ([2]; mouse, PO 10 mg/kg): 0.25 h
bioavailability ([2]; mouse, PO 10 mg/kg): 94.4%
half-life ([2]; mouse, PO 10 mg/kg): 3.33 h
MRT inf ([2]; mouse, PO 10 mg/kg): 2.74 h
MRT last ([2]; mouse, PO 10 mg/kg): 2.69 h
IC50 (MCF-7 cell): 0.155 µM
Compound: CNC(=O)c1cccc(-c2ccc3c(N4CCOC[C@@H]4C)nc(N4CCOC5(CC5)C4)nc3n2)c1 [Embodiment 1]
IC50 (OE21 cell): 0.313 µM
IC50 (N87 cell): 0.061 µM

Kd [1]: 0.00044 µM
IC50 (HT-29 cell): 0.442 µM
Compound: CNC(=O)c1cccc(-c2ccc3c(N4CCOC[C@@H]4C)nc(N4CC5(CCC5)OC[C@@H]4C)nc3n2)c1 [Embodiment 30]
IC50 (OE21 cell): 0.158 µM
